These results are taken from ChEMBL document CHEMBL1201862, “PubChem BioAssay data set” (2004).

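Each compound was tested at five concentrations against cells in 96-well plates for 48 hours. Abbreviation: GI50, concentration required for 50% inhibition of growth.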 Activity calls are given as the source filed them. Cut-off read from the data, not from the text of the source: active = GI50 up to about 1.1 µM and inactive = higher.

Among the test systems are 786-0; COLO 205; HCC 2998; HCT-15; HOP-62; KM-20L2; NCI-H460; NCI-H522; OVCAR-3; OVCAR-8; SN12C; SNB-75; U-251; UACC-257; UO-31; OVCAR-5; SK-MEL-5; A498; MDA-N; T47D.
Holding throughout (test): NCI-60 cell line screen, 48 h

As to `O=C1NC2C(CCO)CC=C[C@H]2c2cc3c(cc21)OCO3` (stereo partly specified), the GI50 in the assay on 786-0 is > 100 µM (inactive); in the assay with COLO 205, > 100 µM (inactive); in the assay with HCC 2998, > 10 µM (inactive); in the assay on HCT-15, above 100 µM; with HOP-62, > 100 µM (inactive); in the assay with KM-20L2 it was > 100 µM (inactive). Besides, the GI50 with NCI-H460, in the assay on NCI-H522, with OVCAR-3, with OVCAR-8, with SN12C and in the assay on SNB-75 was > 100 µM (inactive) in each case. In addition, the GI50 in the assay with U-251, in the assay with UACC-257 and in the assay with UO-31 was > 100 µM (inactive) throughout.
In the case of `C/C(=N/O)C1CC=C(S(=O)(=O)c2ccccc2)C1` (stereo unspecified), the GI50 in the assay with 786-0 is > 100 µM (inactive); in the assay with COLO 205, > 100 µM (inactive); with HCC 2998 it was > 100 µM (inactive); in the assay on HCT-15, above 100 µM; in the assay with HOP-62, > 100 µM (inactive); with KM-20L2 it was > 100 µM (inactive). The GI50 in the assay with NCI-H460, in the assay on NCI-H522, in the assay on OVCAR-3, in the assay on OVCAR-5, in the assay with OVCAR-8 and in the assay with SN12C was > 100 µM (inactive) throughout. The GI50 in the assay with SNB-75, with U-251, in the assay with UACC-257 and in the assay with UO-31 was > 100 µM (inactive) throughout.
Regarding `O=C(NCCCN1CCN(CCCNC(=O)Nc2cc(Cl)ccc2Cl)CC1)Nc1cc(Cl)ccc1Cl`, the GI50 was 32.5 µM (inactive) in the assay with 786-0; 45.5 µM (inactive) in the assay on COLO 205; 65.3 µM in the assay with HCT-15; 52.6 µM (inactive) in the assay on HOP-62; 28.4 µM (inactive) with KM-20L2; > 100 µM (inactive) in the assay on NCI-H460. Further, the GI50 with NCI-H522 is 38.6 µM (inactive); with OVCAR-3, > 100 µM (inactive); in the assay with OVCAR-5, > 100 µM (inactive); with OVCAR-8, 61.8 µM (inactive); in the assay with SK-MEL-5 it was 39.7 µM (inactive); in the assay on SN12C, 83 µM (inactive). The GI50 in the assay on SNB-75 is 15 µM (inactive); with U-251, 50.7 µM (inactive); with UACC-257 it was 16.5 µM (inactive); in the assay on UO-31, > 100 µM (inactive).
As to `CN(C)c1ccc(C(C#N)NNC(=O)Cc2ccccc2)cc1` (stereo unspecified), the GI50 is > 100 µM (inactive) with 786-0; > 100 µM (inactive) with COLO 205; above 100 µM in the assay with HCT-15; > 100 µM (inactive) with HOP-62; > 100 µM (inactive) in the assay on KM-20L2; > 100 µM (inactive) in the assay on NCI-H460. The GI50 with NCI-H522, in the assay on OVCAR-3, in the assay with OVCAR-5, in the assay on OVCAR-8, with SK-MEL-5 and with SN12C was > 100 µM (inactive) each time. Besides, the GI50 in the assay with SNB-75, in the assay on U-251, in the assay with UACC-257 and in the assay on UO-31 was > 100 µM (inactive) throughout.
As to `CCN(CC)CCCNC(=O)Cc1ccccc1Nc1c(Cl)cccc1Cl`, the GI50 in the assay with 786-0 is 0.465 µM (active); in the assay with COLO 205 it was 13.7 µM (inactive); in the assay on HCC 2998 it was 3.01 µM (inactive); in the assay with HCT-15 it was 14.9 µM; in the assay with HOP-62, 16 µM (inactive); in the assay on KM-20L2, 3.81 µM (inactive). Further, the GI50 was 16 µM (inactive) with OVCAR-3; 11.4 µM (inactive) in the assay with OVCAR-5; 16.2 µM (inactive) with OVCAR-8; 3.85 µM (inactive) in the assay on SK-MEL-5; 14.5 µM (inactive) in the assay on SN12C; 8.75 µM (inactive) in the assay on SNB-75. The figures for the GI50 in the assay on U-251, in the assay on UACC-257 and in the assay with UO-31 were 13 µM (inactive), 4.03 µM (inactive) and 11.2 µM (inactive), respectively.
Consider `CCOP(=O)(OCC)C(Nc1ccc(Br)cc1)c1cccc([N+](=O)[O-])c1` (stereo unspecified), for which the GI50 in the assay with 786-0 is 20.4 µM (inactive); in the assay on A498, 13.3 µM (inactive); in the assay with COLO 205, 13.2 µM (inactive); in the assay on HCC 2998 it was 17.5 µM (inactive); with HCT-15 it was 14.5 µM; in the assay with HOP-62, 17.5 µM (inactive). Further, the GI50 with MDA-N was 19.2 µM (inactive); in the assay with NCI-H460, 14.1 µM (inactive); in the assay on NCI-H522, 13.6 µM (inactive); in the assay on OVCAR-3, 16.2 µM (inactive); in the assay with OVCAR-5 it was 24.1 µM (inactive); with OVCAR-8, 24.6 µM (inactive). Also, the GI50 is 14.6 µM (inactive) in the assay with SK-MEL-5; 18.8 µM (inactive) in the assay with SN12C; 29.2 µM (inactive) with SNB-75; 12.6 µM (inactive) in the assay on T47D; 18.2 µM (inactive) with U-251; > 10 µM (inactive) in the assay on UACC-257. Also, the GI50 in the assay with UO-31 was 10.8 µM (inactive).
Take `CC[N+](CC)(CC)Cc1cn(S(=O)(=O)c2ccccc2)c2ccccc12`: the GI50 with 786-0 was > 100 µM (inactive); in the assay with COLO 205, > 100 µM (inactive); in the assay with HCC 2998 it was > 100 µM (inactive); in the assay on HCT-15, above 100 µM; with HOP-62 it was > 100 µM (inactive); in the assay on KM-20L2 it was > 100 µM (inactive). The GI50 in the assay with NCI-H460, in the assay with NCI-H522, in the assay with OVCAR-3, with OVCAR-5, in the assay on OVCAR-8 and in the assay with SK-MEL-5 was > 100 µM (inactive) each time. Besides, the GI50 with SNB-75 is 40.7 µM (inactive); in the assay with U-251 it was > 100 µM (inactive); in the assay on UACC-257 it was > 100 µM (inactive); in the assay on UO-31, > 100 µM (inactive).
As for `N#C[BH2-][n+]1ccc(C(=O)NNCc2cccc(C(F)(F)F)c2)cc1`, the GI50 in the assay on 786-0 was 4.83 µM (inactive); in the assay with A498 it was 21.6 µM (inactive); in the assay on COLO 205, 14.1 µM (inactive); in the assay with HCC 2998, 7.11 µM (inactive); in the assay on HCT-15, 21.3 µM; in the assay with HOP-62, 12.8 µM (inactive). For the same molecule, the GI50 in the assay on MDA-N was 10.2 µM (inactive); in the assay with NCI-H460, 20 µM (inactive); in the assay on NCI-H522, 16.3 µM (inactive); in the assay with OVCAR-3, 10.9 µM (inactive); in the assay on OVCAR-5 it was 21.2 µM (inactive); in the assay on OVCAR-8, 3.98 µM (inactive). In addition, the GI50 in the assay on SK-MEL-5 is 1.83 µM (inactive); in the assay with SN12C, 28.8 µM (inactive); with SNB-75, 3.85 µM (inactive); in the assay on T47D, 20 µM (inactive); in the assay with U-251, 7.71 µM (inactive); in the assay on UACC-257 it was 4.92 µM (inactive). Moreover, the GI50 in the assay on UO-31 is 11.9 µM (inactive).
Regarding `COc1ccc(NC(=S)N/N=C2\C(=O)Nc3ccccc32)cc1`, the GI50 in the assay on 786-0 was 7.55 µM (inactive); in the assay with A498, 40.6 µM (inactive); with COLO 205 it was 6.52 µM (inactive); in the assay on HCC 2998, 27.2 µM (inactive); with HCT-15, 0.984 µM; in the assay with HOP-62, 12.2 µM (inactive). The GI50 in the assay with MDA-N was 55.6 µM (inactive); in the assay with NCI-H460, 3.13 µM (inactive); with NCI-H522 it was 18.7 µM (inactive); in the assay on OVCAR-3 it was 28.8 µM (inactive); with OVCAR-5, 65 µM (inactive); in the assay on OVCAR-8 it was 7.55 µM (inactive). Also, the GI50 in the assay on SK-MEL-5 is 9.27 µM (inactive); with SN12C, 40.4 µM (inactive); in the assay on SNB-75, 48 µM (inactive); in the assay with T47D it was 7.98 µM (inactive); in the assay with U-251, 5.22 µM (inactive); in the assay with UACC-257, 47 µM (inactive). Besides, in the assay with UO-31, the GI50 is 5.18 µM (inactive).
